Residues, ends and D or L forms follow the SMILES beside them.
Experiments:
[1] = target: T1, Solute carrier organic anion transporter family member 1B3 (Homo sapiens, UniProt Q9NPD5); settings: chinese hamster, cho, 10 µM
T1 sequence (Q9NPD5 whole entry): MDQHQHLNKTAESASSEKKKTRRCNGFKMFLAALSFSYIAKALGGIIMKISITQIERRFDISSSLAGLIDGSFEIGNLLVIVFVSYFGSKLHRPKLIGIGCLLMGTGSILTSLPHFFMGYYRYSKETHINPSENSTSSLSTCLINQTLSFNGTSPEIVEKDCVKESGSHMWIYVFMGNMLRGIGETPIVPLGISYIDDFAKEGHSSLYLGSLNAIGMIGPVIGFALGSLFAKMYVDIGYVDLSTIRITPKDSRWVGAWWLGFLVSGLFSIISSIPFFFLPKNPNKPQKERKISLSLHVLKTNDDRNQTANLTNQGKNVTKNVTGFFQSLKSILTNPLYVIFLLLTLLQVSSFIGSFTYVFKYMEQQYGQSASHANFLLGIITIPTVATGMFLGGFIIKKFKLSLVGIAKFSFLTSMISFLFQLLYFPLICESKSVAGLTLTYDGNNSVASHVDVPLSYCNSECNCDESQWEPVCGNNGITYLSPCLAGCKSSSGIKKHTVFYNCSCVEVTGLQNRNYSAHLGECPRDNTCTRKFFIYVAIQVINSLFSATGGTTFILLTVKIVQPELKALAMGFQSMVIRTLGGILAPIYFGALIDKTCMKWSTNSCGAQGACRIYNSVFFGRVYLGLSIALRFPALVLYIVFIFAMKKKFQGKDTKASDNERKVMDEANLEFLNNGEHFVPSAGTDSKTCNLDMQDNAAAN

[2] = target: T2, Solute carrier organic anion transporter family member 1B1 (Homo sapiens, UniProt Q9Y6L6); settings: chinese hamster, cho, 10 µM
T2 sequence (Q9Y6L6 whole entry): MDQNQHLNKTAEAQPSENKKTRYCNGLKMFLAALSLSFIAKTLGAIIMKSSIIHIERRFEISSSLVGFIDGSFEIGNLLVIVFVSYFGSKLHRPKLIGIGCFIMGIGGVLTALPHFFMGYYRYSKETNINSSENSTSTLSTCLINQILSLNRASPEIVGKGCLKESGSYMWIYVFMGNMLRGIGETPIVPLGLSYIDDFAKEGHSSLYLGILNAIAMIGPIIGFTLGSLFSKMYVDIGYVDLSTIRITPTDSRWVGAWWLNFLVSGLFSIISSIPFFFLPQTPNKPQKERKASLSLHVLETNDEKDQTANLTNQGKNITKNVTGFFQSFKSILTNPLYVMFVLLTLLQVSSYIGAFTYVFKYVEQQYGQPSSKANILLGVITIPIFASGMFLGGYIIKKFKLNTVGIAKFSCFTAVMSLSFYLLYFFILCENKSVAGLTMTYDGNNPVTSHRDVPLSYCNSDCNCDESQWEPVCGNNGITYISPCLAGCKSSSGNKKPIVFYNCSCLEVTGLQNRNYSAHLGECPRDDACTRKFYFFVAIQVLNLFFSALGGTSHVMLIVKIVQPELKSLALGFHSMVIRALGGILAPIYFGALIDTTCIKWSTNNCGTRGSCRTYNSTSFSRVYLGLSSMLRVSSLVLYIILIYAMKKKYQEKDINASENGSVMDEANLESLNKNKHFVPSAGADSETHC

SMILES	residual activity [1] [%]	residual activity [2] [%]
CCC(=O)OC1[C@@H]2CC3=C4CC(=O)O[C@@H](c5ccoc5)[C@]4(C)CCC3[C@@](C)(C2=O)[C@@H](CC(=O)OC)C1(C)C (some centres not stated) [KHAYASIN C]	67.18	59.29
CCC(C)C(=O)OC1[C@@H]2CC3=C4CC(=O)O[C@@H](c5ccoc5)[C@]4(C)CCC3[C@@](C)(C2=O)[C@@H](CC(=O)OC)C1(C)C (some centres not stated) [KHAYASIN]	83.34	98.52
COc1c2occc2c(OC)c2c(=O)cc(C)oc12 [KHELLIN]	102.2	83.15
CC(=O)O[C@H]1C[C@@H](OC(C)=O)C(C)(C)[C@@H]2C[C@@H](OC(C)=O)[C@]3(C)[C@H](CC[C@@]4(C)[C@H](c5ccoc5)OC(=O)[C@H]5O[C@@]534)[C@@]12C [KHIVORIN]	94.96	77.22
COc1ccc(-c2coc3cc(O)ccc3c2=O)c(OC)c1O [KHRINONE E]	96.23	85.61
OC[C@H]1O[C@@H](n2cnc3c(NCc4ccco4)ncnc32)[C@H](O)[C@@H]1O [KINETIN RIBOSIDE]	112	114.7
c1coc(CNc2ncnc3[nH]cnc23)c1 [KINETIN]	100.6	96.48
CC1(C)C[C@@H]2C(=O)CC[C@H]3O[C@]3(C)CC[C@H]21 [KOBUSONE]	84.64	64.48
O=c1cc(CO)occ1O [KOJIC ACID]	80.38	79.88
COc1ccc(-c2coc3cc(O)ccc3c2=O)c(O)c1O [KOPARIN]	86.85	88.35
COc1c(O)cc2c(-c3ccccc3)cc(=O)oc2c1OC [KUHLMANNIN]	118.4	128.2
NCCC(=O)c1ccccc1N [KYNURAMINE]	89.22	113.9
Nc1ccccc1C(=O)CC(N)C(=O)O (configuration not stated) [KYNURENINE]	67.15	58.07
C[C@H](N)CO [L-ALANINOL]	104	73.39
NC(=O)NCCC[C@H](N)C(=O)O [L-CITRULLINE]	119.7	135.1
N[C@H](CO)Cc1ccccc1 [L-PHENYLALANINOL]	101.5	77.2
CC(CCc1ccccc1)NCC(O)c1ccc(O)c(C(N)=O)c1.Cl (configuration not stated) [LABETALOL HYDROCHLORIDE]	101.4	93.55
OC[C@H]1O[C@@H](O[C@@H]2[C@@H](CO)O[C@](O)(CO)[C@H]2O)[C@H](O)[C@@H](O)[C@H]1O [LACTULOSE]	104.9	90.31
C[C@@H]1CC[C@H]2[C@](C)(CO)[C@@H](O)CC[C@]2(C)[C@@]12CC[C@@](CO)(CCO)O2 [LAGOCHILINE]	95.67	99.12
CC(=O)O[C@H]1C[C@H](O[C@H]2[C@@H](O)C[C@H](O[C@H]3[C@@H](O)C[C@H](O[C@H]4CC[C@@]5(C)[C@H](CC[C@@H]6[C@@H]5C[C@@H](O)[C@]5(C)[C@@H](C7=CC(=O)OC7)CC[C@]65O)C4)O[C@@H]3C)O[C@@H]2C)O[C@H](C)[C@H]1O[C@@H]1O[C@H](CO)[C@@H](O)[C@H](O)[C@H]1O [LANATOSIDE C]	86.15	102.5
CC(C)=CCC[C@@H](C)[C@H]1CC[C@@]2(C)C3=C(CC[C@]12C)[C@@]1(C)CC[C@H](O)C(C)(C)[C@@H]1CC3 [LANOSTEROL]	90.91	53.97
Cc1c(OCC(F)(F)F)ccnc1C[S+]([O-])c1nc2ccccc2[nH]1 (configuration not stated) [LANSOPRAZOLE]	100.5	95.47
CC(C)=CCC1=C(O)C(=O)c2ccccc2C1=O [LAPACHOL]	108.2	115.5

SMILES	residual activity [1] [%]	residual activity [2] [%]
COc1ccc(CC2c3cc(OC)c(OC)cc3CCN2C)cc1OC (configuration not stated) [LAUDANOSINE]	114.7	107.4
O=C1C=C(O)C(=O)c2ccccc21 [LAWSONE]	101.6	99.76
Cc1cc(OC(=O)c2c(C)cc(O)cc2O)cc(O)c1C(=O)O [LECANORIC ACID]	60.79	61.21
CC(C)C[C@H](N)C(=O)N[C@@H](C)C(=O)O [LEU-ALA] (H-Leu-Ala-OH)	96.54	93.04
N=c1[nH]c(=O)c2[nH]c(=O)c(=O)[nH]c2[nH]1 [LEUCOPTERIN]	98.11	136.6
Nc1nc(=O)c2c([nH]1)NCC(CNc1ccc(C(=O)N[C@@H](CCC(=O)[O-])C(=O)[O-])cc1)N2C=O.[Ca+2] (some centres not stated) [LEUCOVORIN CALCIUM]	90.54	80.81
CC(C)(C)NC[C@H](O)c1ccc(O)c(CO)c1.Cl [LEVALBUTEROL HYDROCHLORIDE]	85.66	95.04
Cl.c1ccc([C@H]2CN3CCSC3=N2)cc1 [LEVAMISOLE HYDROCHLORIDE]	102.9	121.8
N[C@@H](Cc1ccc(O)c(O)c1)C(=O)O [LEVODOPA]	90.65	86.05
C[C@H]1COc2c(N3CCN(C)CC3)c(F)cc3c(=O)c(C(=O)O)cn1c23.C[C@H]1COc2c(N3CCN(C)CC3)c(F)cc3c(=O)c(C(=O)O)cn1c23.O [LEVOFLOXACIN]	95.07	117.4
CC(C)=CCC[C@](C)(O)[C@@H]1CC=C(C)CC1 [LEVOMENOL]	97.78	83.39
C[C@H](N)[C@H](O)c1ccc(O)c(O)c1 [LEVONORDEFRIN]	80.26	58.62
CC(=O)/C(=C\c1ccccc1)CC(=O)O [LEVULINIC ACID,  3-BENZYLIDENYL-]	110.1	134.7
CCC/C=C1\OC(=O)C2=C1CCC=C2 [LIGUSTILIDE]	107.5	117.7
CC1(C)O[C@H]2CC(=O)OC[C@]23[C@H]2CC[C@@]4(C)[C@H](c5ccoc5)OC(=O)[C@H]5O[C@]54[C@]2(C)C(=O)C[C@@H]13 [LIMONIN]	92.09	102.2
C=C[C@](C)(O)CCC=C(C)C [LINALOOL (+)]	117.7	102.5
CC(C)(C#N)O[C@@H]1O[C@H](CO)[C@@H](O)[C@H](O)[C@H]1O [LINAMARIN]	97.67	131.3
CCC[C@@H]1C[C@@H](C(=O)N[C@@H]([C@H]2O[C@H](SC)[C@H](O)[C@@H](O)[C@H]2O)[C@@H](C)O)N(C)C1.Cl.O [LINCOMYCIN HYDROCHLORIDE]	97.7	83.01
Cl[C@H]1[C@H](Cl)[C@@H](Cl)[C@@H](Cl)[C@H](Cl)[C@H]1Cl [LINDANE]	90.09	79.82
O=C(O)CCCCC1CCSS1 (stereo not drawn) [LIPOIC ACID, ALPHA]	103.3	129.1
COc1ccc(C2CC(=O)c3ccc(OC)cc3O2)cc1 (configuration not stated) [LIQUIRITIGENIN DIMETHYL ETHER]	114.3	104.2
C[C@H](CCC(=O)O)[C@H]1CC[C@H]2[C@@H]3CC[C@@H]4C[C@H](O)CC[C@]4(C)[C@H]3CC[C@]12C [LITHOCHOLIC ACID]	60.21	6.612
CN1[C@@H](CC(=O)c2ccccc2)CCC[C@H]1C[C@H](O)c1ccccc1.Cl [LOBELINE HYDROCHLORIDE]	108.5	125.6
